Reference: US20150158914A1, “PEPTIDES, CONSTRUCTS AND USES THEREFOR” (priority 2010, published 2015)
“Also recorded” adds a separate entry of the source. Ends that are not written are not given here. * marks the point of attachment. FITC = O=C1OC2(c3ccc(O)cc3Oc3cc(O)ccc32)c2ccc(NC(=S)*)cc21

Legend:
HepG2 cells [1] = experiment: Pathway of peptide entry: pretreatment with cytochalasin D or heparin; type: cell-based, human; conditions: 30 min pretreatment, 10 μM peptide, 3 h; for effect of heparin pretreatment on peptide entry: 2 μg/ml heparin
Protocol: Cells were plated overnight at 1×10^5 per well in eight chamber slides in complete MEM medium containing 10% FCS. The cells were washed thrice with MEM medium, and pretreated for 30 min with either 10 μm cytochalasin D or 2 μg/ml of heparin in MEM at 37° C. Peptide was then added at a concentration of 10 μM and cells were incubated for 3 h at 37° and 5% CO2. The cells were washed with PBS, fixed with 4% formaldehyde and PBS for 30 min, and a drop of Prolong Gold antifade reagent with DAPI (Invitrogen cat# P36931) was added to each well. The slides were dried overnight in the dark, and examined by microscopy by using a Nikon E600 fluorescent microscope. Photos were taken using Nikon ACT-1 software.
Exactly how cell-permeable peptides pass through the plasma membrane of cells is still not fully understood. […] Actin elongation on the cell surface leads to an extension of the plasma membrane into the extracellular environment. When the plasma membrane fuses back with itself it forms macropinosomes, and in doing so encapsulates and internalizes a large volume of extracellular fluid. Another mechanism is via the binding of peptides to cell surface heparan sulphate proteoglycans, which leads to internalization of the peptide through an endocytic process. HepG2 cells were pretreated with cytochalasin D and heparin, and then incubated with FITC-labelled cell permeable peptides aa 16-22, and aa 16-35 for 3 h to determine whether either of the above two mechanisms mediated cell uptake of the X-protein peptides. Control cells were treated with the X-protein peptides but were not treated with either chemical. Cytochalasin D is an F-actin elongation inhibitor, which inhibits macropinocytosis by inhibiting extension of the plasma membrane. Heparin would be expected to antagonize the binding of the peptides to cell surface heparan sulphate proteoglycans.

HepG2 cells [2] = experiment: Assay for cell permeability of X-protein peptides (fluorescence and confocal microscopy); type: cell-based, human; conditions: for uptake by HepG2 cells (cell permeability): FITC-labelled peptide 10 μM, 3 h, medium without FCS; for intracellular distribution (confocal slicing): FITC-labelled peptide, HepG2 cells
Protocol: (§1) The cells were then incubated overnight at 37° and 5% CO2, and then washed thrice with media without FCS. The X-protein peptide in 250 μl of appropriate media without FCS was added to the cells at a final concentration of 10 μM, and the slides incubated for 3 h at 37° C. and 5% CO2. The cells were washed with PBS, fixed with 4% formaldahyde in PBS for 30 min, and washed thrice with PBS. […] The slides were dried overnight in the dark, and examined by microscopy by using a Nikon E600 fluorescent microscope. Photos were taken using Nikon ACT-1 software. For further examination, slides were then examined by confocal microscopy using a Leica TCS-SP2 confocal microscope.

[3] = target: T1, X-protein N-terminal peptide 1-50 (Hepatitis B virus genotype C subtype adr, UniProt Q81163, DEL44-44/P38S/S41A/S42F/V5L); experiment: Peptide binding assay: FITC-peptides on peptide 1-50-coated plates; conditions: FITC-peptide at 10, 20, 40 μg/ml, 30 min
T1 construct: The parent peptide containing aa 1-50 conjugated N-terminally to a biotin tag; purchased; host or cells: chemical synthesis
Protocol: Qligomerization peptides were received in powdered form, and were weighed and diluted in a sterile 10% DMSO solution to make a 10 mg/ml stock solution. The wells of a Reactibind neutravidin-coated 96 well plate (Thermoscientific cat #15507) were thrice washed with 200 μl of plate washing buffer. Peptide 1-50, which contains a biotin tag, was diluted to 10 μg/ml in wash buffer and 100 μl of the solution was placed into each well being used. The plate was incubated at room temperature for 2 h, and the wells washed thrice with 200 μl of wash buffer. Truncated fluorescent variants of peptide 1-50 at 40 μg/ml, 20 μg/ml, and 10 μg/ml were added to the wells in triplicate, and the plates incubated at room temperature for 30 min. The wells were then washed thrice with 200 μl of wash buffer under low light conditions, and the plate read on a Biotek fluorescent plate reader at an excitation wavelength of 490 nm and an emission wavelength of 520 nm.
A ligand-binding assay was performed using streptavidin-coated plates in order to define the minimum peptide motif needed for dimerization of the X-protein. In this scenario the X-protein monomer serves as its own ligand. […] A series of short peptides from the region encoding aa 1-50 were synthesized. The parent peptide containing aa 1-50 conjugated N-terminally to a biotin tag was added to the streptavidin coated plates. […] Non-biotinylated peptides encoding aa 1-20, 16-35, 21-40 and 34-53 were added at 10, 20, and 40 μg/ml to the wells coated with peptide aa 1-50. The smaller peptides were each conjugated to a FITC tag for detection using a fluorescent plate reader. […] Binding performed with lesser concentrations of the peptides was not significant. Even smaller peptides encompassing that region 16-35 were made to determine whether the aa 16-35 was the minimum peptide motif needed for X-protein dimerization. These peptides synthesized, namely aa 16-26, 16-24, and 16-22 were analyzed using the same peptide binding assay. […] Thus of the peptides examined, the minimal peptide motif needed for dimerization of the X-protein is the […] peptide 16-35.

adherent TK1 T cells = experiment: Peptide uptake by attached TK1 cells; type: cell-based
Text: As above, the lymphocytic cell line TK1 in suspension was not able to take up the X-protein cell-permeable peptide aa 16-22. Once activated, circulating lymphocytes have the ability to adhere to the vascular endothelium, to attach to antigen presenting cells, and to attach to and move through the extracellular matrix. The fact that adherent monocytes took up the peptide raised the possibility that TK1 T cells attached to a surface might also be able to take up the X-protein cell permeable peptide aa 16-22. TK1 cells were adhered to MAdCAM-1-coated glass slides or left to bind directly to the surface of the glass slides. Cells attached to the slides were incubated with the X-protein cell-permeable peptide aa 16-22 for 3 h in RPMI without FCS. Virtually all TK1 cells attached via α4β7 to MAdCAM-1 took up the peptide, whereas only 50 to 60% of cells directly attached to the glass slide took up the peptide (FIG. 27).

C32 melanoma cell line = experiment: Peptide uptake by other cell lines; type: cell-based, human; conditions: C32, 3 h
Protocol: as §1
(§2) The X-protein cell-permeable peptide aa 16-22 was tested for its ability to be taken up by other mammalian cell lines including the human C32 melanoma, DU145 prostate carcinoma, TK1 T cell lymphoma, H441 lung carcinoma, Rin-m5f rat pancreatic islet tumor and Cos-1/7 green monkey kidney cell lines. TK1 cells are suspension cells whereas all other cell lines are adherent cells. Cells were incubated with the fluoresceinated X-protein cell-permeable peptide 16-22 for 3 h in medium appropriate for that cell line in the absence of FCS. The HepG2 cell line was used as a positive control. The X-protein peptide was able enter all adherent cell lines regardless of type or source of the cell (FIGS. 22 and 23).

[4] = tested on: DU145 prostate carcinoma cell line; experiment: Peptide uptake by other cell lines; type: cell-based, human; conditions: DU145, 3 h
Protocol: as §1, §2

Substance	effect of heparin pretreatment on peptide entry (HepG2 cells [1]; listed as aa 16-35)	effect of cytochalasin D pretreatment on peptide entry (HepG2 cells [1])	uptake by HepG2 cells (cell permeability) (HepG2 cells [2]; listed as aa 16-35)	intracellular distribution (confocal slicing) (HepG2 cells [2]; listed as aa 16-35)	binding to peptide 1-50 (fluorescence) [3]	effect of heparin pretreatment on peptide entry (HepG2 cells [1]; listed as aa 16-22)	uptake by adherent TK1 T cells (adherent TK1 T cells; adhered to MAdCAM-1-coated glass slides or to the slides directly)	TK1 cells that took up the peptide (adherent TK1 T cells; attached via α4β7 to MAdCAM-1, 3 h)	TK1 cells that took up the peptide (adherent TK1 T cells; directly attached to the glass slide, 3 h)	uptake by HepG2 cells (cell permeability) (HepG2 cells [2]; listed as X-protein cell-permeable peptide 16-22)	uptake by HepG2 cells (cell permeability) (HepG2 cells [2]; listed as aa 16-22)	intracellular distribution (confocal slicing) (HepG2 cells [2]; listed as aa 16-22)	uptake of the peptide, cells positive (HepG2 cells [2]; HepG2, 3 h, no FCS) [% cells positive]	entry into cells (C32 melanoma cell line)	uptake of the peptide, cells positive (C32 melanoma cell line; no FCS) [% cells positive]	entry into cells [4]	uptake of the peptide, cells positive ([4]; no FCS) [% cells positive]
FITC-Acp-LCLRPVGAESRGRPVSGPFG [Peptide 16-35]	dependent on heparin binding; also recorded: effectively blocked peptide entry into the cells	no effect on the entry of the peptides into the cell	cell-permeable; also recorded: readily taken up by the cells	taken up into the cytoplasm and nucleus; also recorded: taken up into the cell cytoplasm, as well as into the nucleus	bound significantly more strongly to peptide 1-50; also recorded: binds to the X-protein N-terminal peptide 1-50	–	–	–	–	–	–	–	–	–	–	–	–
FITC-LCLRPVG ({FITC}-LCLRPVG) [Peptide 16-22]	–	no effect on the entry of the peptides into the cell	–	–	could not match the strong binding shown by the parental peptide 16-35	dependent on heparin binding; also recorded: effectively blocked peptide entry into the cells	took up	Virtually all	50 to 60 % of cells	able to enter	cell-permeable, being taken up by cells at a level equivalent to that of the parental peptide aa 16-35; also recorded: taken up into the cells	taken up into both the cytoplasm and nucleus of cells	> 90	able to enter	> 90	able to enter	> 90
